Laboratory results reported in patent US11939362B2, “Light-inducible protein aggregation system for modeling proteinopathies and neurodegenerative disorders” (UNIVERSITÉ LAVAL, priority 2018, dated 2024).

Columns and labels:
LIPA-α-syn aggregates = assay: Stability of LIPA-α-syn inclusions after light stimulation (proportion of mCherry-positive cells with inclusions); type: cell-based, human; details: for effect on the proportion of cells with mCherry inclusions / reduction in the number of cells exhibiting stable LIPA-α-syn inclusions: HEK-293T cells overexpressing LIPA-α-syn; for effect on the proportion of cells with mCherry inclusions: treatment with inactive small molecules, FIG. 18, n=5; for reduction in the number of cells exhibiting stable LIPA-α-syn inclusions: 12 h pre-exposure to blue light, treatment with small molecule inhibitor, FIG. 16, n=5
Experimental: HEK-293T cells were seeded on 0.1% gelatin-coated glass coverslips in 24-well plates at a density of 10^4 cells per well (50% confluence) and transiently transfected, 24 h later, with 0.5 μg of LIPA-Empty, 0.6 μg LIPA-α-syn, and 1 μg LIPA-α-syn^ΔNAC per 4 wells, to obtain similar protein expression levels in all conditions. 24 h post-transfection, cells were exposed to blue light (λ=456 nm) using UHP-T-DI-LED series Ultra High-Power LEDs (Prizmatix), at an intensity of 0.8 mW/cm^2, as measured using LPM-100 light power meter (Amuza). Cells were collected at different time points and fixed in 4% paraformaldehyde for 15 min at room temperature (RT), then washed three times (5 min) with PBS and permeabilized with PBS containing 0.25% Triton X-100, for 30 min at RT. Cells were incubated in blocking buffer solution (PBS containing 5% BSA and 0.1% Triton X-100), for 1 h at RT. Coverslips were incubated with primary antibodies (see Table 1) diluted in blocking buffer solution for 2 h at RT. Coverslips were washed three times in blocking buffer solution (10 min) and appropriate Alexa Fluor® secondary antibodies (Life Technologies, see Table 1) were applied for 1 h at RT. Coverslips were washed twice with PBS (10 min) and counterstained with the fluorescent nuclear stain […] 4,6-diamidino-2-phenylindole (DAPI) (1:5000) for 5 min. Coverslips were then washed twice with PBS (10 min), mounted on Prolong® Gold Antifade (Molecular Probes), and imaged using a Zeiss LSM800 confocal microscope. For thioflavin S (ThS) staining, fixed and permeabilized cells were incubated with 0.05% ThS for 15 min, washed three times with 70% ethanol for 10 min, and then cells were directly counterstained with DAPI. All immunocytochemistry experiments were made with gentle rocking and protected from light.
(§1) To evaluate the number of mCherry-positive cells with aggregates, a total of 8-10 images per condition were collected using a fluorescence microscope (Nikon Eclipse 80i; 20× objective) and a total of 220-250 cells were quantified by two experimenters, in a blind manner, using ImageJ.
The stability of LIPA-α-syn inclusions in the absence of light stimulation was evaluated by assessing the proportion of mCherry-positive cells having inclusions. LIPA aggregates were allowed to form over a 12 h period under light stimulation and cells were collected at different time points up to 48 h post-illumination (FIG. 14).
The impact of treatment with potent small molecule inhibitors of α-syn aggregation, namely baicalein and myrecitin (Masuda et al., 2006; Zhu et al., 2004), on the stability of LIPA-α-syn inclusions was next evaluated. […] Treatment with baicalein or myrecitin had no effect on LIPA-Empty dissociation, confirming the specificity of these inhibitors (FIG. 17).
Previous studies have reported that both β-synuclein (β-syn) and mouse α-syn (ma-syn) overexpression inhibit human α-syn aggregation in cell culture and animal models. To test the impact of these two proteins on LIPA-α-syn inclusion formation, LIPA-α-syn was overexpressed with β-syn or ma-syn in HEK-293T cells, then transiently exposed to blue light for 12 h.

LIPA-Empty aggregates = target: T1, LIPA-Empty aggregates (Arabidopsis thaliana, UniProt Q96524, E490G); assay: Stability/dissociation of LIPA-Empty inclusions after light stimulation (proportion of mCherry-positive cells with inclusions); type: cell-based, human; details: HEK-293T cells overexpressing LIPA-Empty, 12 h pre-exposure to blue light, FIG. 17, n=5
T1 construct: expressed in transfected cells; host or cells: HEK-293T
Experimental: HEK-293T cells were seeded on 0.1% gelatin-coated glass coverslips in 24-well plates at a density of 10^4 cells per well (50% confluence) and transiently transfected, 24 h later, with 0.5 μg of LIPA-Empty, 0.6 μg LIPA-α-syn, and 1 μg LIPA-α-syn^ΔNAC per 4 wells, to obtain similar protein expression levels in all conditions. 24 h post-transfection, cells were exposed to blue light (λ=456 nm) using UHP-T-DI-LED series Ultra High-Power LEDs (Prizmatix), at an intensity of 0.8 mW/cm^2, as measured using LPM-100 light power meter (Amuza). […]
as §1
The stability of LIPA-α-syn inclusions in the absence of light stimulation was evaluated by assessing the proportion of mCherry-positive cells having inclusions. […]
The impact of treatment with potent small molecule inhibitors of α-syn aggregation, namely baicalein and myrecitin (Masuda et al., 2006; Zhu et al., 2004), on the stability of LIPA-α-syn inclusions was next evaluated. […]

T1 sequence (Q96524 1-498 E490G): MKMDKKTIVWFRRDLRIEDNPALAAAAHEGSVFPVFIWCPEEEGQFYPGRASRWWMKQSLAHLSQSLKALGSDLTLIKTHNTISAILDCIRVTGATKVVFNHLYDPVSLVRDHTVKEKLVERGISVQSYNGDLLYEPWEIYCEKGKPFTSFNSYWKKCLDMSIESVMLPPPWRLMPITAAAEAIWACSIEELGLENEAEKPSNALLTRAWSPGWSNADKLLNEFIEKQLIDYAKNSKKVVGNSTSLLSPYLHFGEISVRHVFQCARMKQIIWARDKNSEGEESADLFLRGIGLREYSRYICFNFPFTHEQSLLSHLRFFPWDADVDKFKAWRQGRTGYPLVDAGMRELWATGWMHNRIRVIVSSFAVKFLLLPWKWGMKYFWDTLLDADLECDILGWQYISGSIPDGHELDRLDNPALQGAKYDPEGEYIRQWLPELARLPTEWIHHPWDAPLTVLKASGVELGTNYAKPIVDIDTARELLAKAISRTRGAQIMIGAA

β-syn: β-synuclein overexpressed in cells; reported to inhibit human α-syn aggregation
reduction of the proportion of cells exhibiting mCherry aggregates (LIPA-α-syn inclusions) (LIPA-α-syn aggregates; co-overexpression with LIPA-α-syn in HEK-293T cells, blue light 12 h, post-stimulation analysis, FIG. 19 and 21, n=5): significant reduction

O=c1c(-c2ccc(O)cc2)coc2cc(O)ccc12 [daidzein]
effect on the proportion of cells with mCherry inclusions (LIPA-α-syn aggregates): did not affect

O=c1cc(-c2ccccc2)oc2cc(O)c(O)c(O)c12 [baicalein]
effect on LIPA-Empty dissociation (LIPA-Empty aggregates): no effect | reduction in the number of cells exhibiting stable LIPA-α-syn inclusions (LIPA-α-syn aggregates): 50%

O=C1C[C@@H](c2ccc(O)cc2)Oc2cc(O)cc(O)c21 [naringenin]
effect on the proportion of cells with mCherry inclusions (LIPA-α-syn aggregates): did not affect

O=c1c(O)c(-c2cc(O)c(O)c(O)c2)oc2cc(O)cc(O)c12 [myrecitin]
effect on LIPA-Empty dissociation (LIPA-Empty aggregates): no effect | reduction in the number of cells exhibiting stable LIPA-α-syn inclusions (LIPA-α-syn aggregates): 50%
